These results are taken from patent US20160264935A1, “TRANSFORMED HUMAN PLURIPOTENT STEM CELLS AND ASSOCIATED METHODS” (McMaster University, priority 2009, published 2016).

Structures can show the parent of a compound that is named as a salt.

Series [1] concerns transformed stem cells (Oct4-GFP). In words: High Content Screening of Oct4-GFP expression (ArrayScan HCS reader). In kind it is cell-based, human. The method, then: At day 2 and 3 BMP4 was added to each of the treated wells at various concentrations. On day 4 microtiter plates containing treated transformed stem cells were imaged using the cellomics ArrayScan HCS reader (Thermofisher). Oct4-GFP expression was shown in green while cell nuclei are shown in blue (Hoescht 33342). A) No BMP untreated control.
Cells were grown as described in FIG. 9 with the exception of the addition of BMP4 which was replaced by DMSO at multiple concentrations as described in the Figure legends. DMSO is a chemical compound used in drug studies as a solvent which is known to induce stem cell differentiation. On day 5, after cell seeding and culture, microtiter plates were imaged using the ArrayScan HCS reader (Thermofisher). […] D) Cell numbers were quantified based on the automated detection and segregation of cells labelled by the nuclear dye Hoescht. […] All images were analyzed using the Cellomics software.
Transformed stem cells were seeded as single cells and grown in culture using standard stem cell culture conditions for 4 days. […] On day 4 microtiter plates containing treated transformed stem cells were imaged using the cellomics ArrayScan HCS reader (Thermofisher). […]
Due to image analysis limitations similar data could not be obtained when normal cells were used for the assays. […] All images were analyzed using the Cellomics software.

The subject of series [2] is t-hPSCs that contain an Oct4-GFP reporter gene. Description: Screen of 300 compounds for inducers of stem cell differentiation (Oct4-GFP/Hoechst ratio). In kind it is cell-based, human. Conditions: 72 hours after exposure; fluorescence plate reader. The source says: FIG. A: identification of inducers of stem cell differentiation. 300 compounds were screened to detect the fluorescence emitted from the Oct4-GFP reporter expressed in transformed cells and normalized to the relative cell nuclear number as defined by Hoechst staining. GFP/Hoechst ratios below zero, the threshold defined by BMP4 (a known stem cell differentiator), are considered potent inducers of stem cells differentiation. FIGS. B-C: the frequency of Oct4+ human iPS cells measured using flow cytometry following 7 days of treatment with Mefloquine (MEFLO) or thioridazine (THIO) compared to culture media (MEFCM) and culture media supplemented with DMSO (DMSO). […] FIGS. 1D-E: Measurements of cell viability using trypan blue on human mobilized peripheral blood treated with mefloquine or thioridazine for 5 days. […]
Plates containing the cells were analyzed 72 hours after exposure to the compounds using a fluorescence plate reader capable of detecting the fluorescence emitted from the Oct4-GFP reporter expressed in transformed cells and normalized to the relative cell nuclear number as defined by Hoechst staining. […]

Series [3] concerns human mobilized peripheral blood. Description: Cell viability by trypan blue exclusion. It counts as cell-based. Conditions: 0.1-10 μM, 5 days.
Experimental: FIGS. 1D-E: Measurements of cell viability using trypan blue on human mobilized peripheral blood treated with mefloquine or thioridazine for 5 days. […] In order to further investigate the compounds identified by the screen, mefloquine and thioridazine were used to treat human mobilized peripheral blood for 5 days. Cell viability was measured using trypan blue exclusion.
The subject of series [4] is human iPS cells. In words: Frequency of Oct4+ cells by flow cytometry. In kind it is cell-based. Conditions: 7 days of treatment; compared to MEFCM and DMSO. The text has this:
FIG. A: identification of inducers of stem cell differentiation. 300 compounds were screened to detect the fluorescence emitted from the Oct4-GFP reporter expressed in transformed cells and normalized to the relative cell nuclear number as defined by Hoechst staining. GFP/Hoechst ratios below zero, the threshold defined by BMP4 (a known stem cell differentiator), are considered potent inducers of stem cells differentiation. FIGS. B-C: the frequency of Oct4+ human iPS cells measured using flow cytometry following 7 days of treatment with Mefloquine (MEFLO) or thioridazine (THIO) compared to culture media (MEFCM) and culture media supplemented with DMSO (DMSO). […] FIGS. 1D-E: Measurements of cell viability using trypan blue on human mobilized peripheral blood treated with mefloquine or thioridazine for 5 days. […] Mefloquine (MEFLO) and thioridazine (THIO) were then tested in human iPS cells. Following 7 days of treatment, the frequency of Oct4+ cells were measured using flow cytometry and compared to culture media (MEFCM) and culture media supplemented with DMSO (DMSO) as a vehicle to augment compound solubility.

For series [5], the system named is transformed pluripotent stem cells that contain an Oct4-GFP reporter. Description: Microscope imaging of Oct4 antibody staining and GFP after BMP-4 treatment. In kind it is cell-based, human. The conditions noted are these: increased amounts of BMP-4, 4 days; microscope images. The method, then:
Transformed pluripotent stem cells that contain an Oct4-GFP reporter were plated, cultured, treated with BMP-4 and fixed as described in FIG. 7. Cells were permeabilized with 0.1% TritonX-100 and stained with Oct4 antibody conjugated with Alexa 647. The cell nuclei were stained with Hoechst 33342. Images were collected using 10× objective on Olympus microscope, and analysed using Image-Pro Plus software.
Cells were permeabilized with 0.1% TritonX-100 and stained with Oct4 antibody conjugated with Alexa 647. The cell nuclei were stained with Hoechst 33342. Images were collected using 10× objective on Olympus microscope, and analysed using Image-Pro Plus software.

The test system of series [6] is transformed pluripotent stem cells with EOS Oct4-GFP reporter. In words: High throughput plate reader screen for loss of pluripotency (Oct4-Alexa 647 antibody and GFP). It counts as cell-based, human. The conditions noted are these: 1, 10, 100 ng/mL BMP4 for 4 days, n=3. Here is the method: Transformed pluripotent stem cells were passaged as single cells using Trypsin and seeded at 1000 cells per well into 96 well optical imaging plates coated with Matrigel ® containing 100 ul mouse embryonic fibroblast conditioned media (MEF-CM). Plates were incubated at 37 degrees for 24 Hr before treatment with bone morphogenic protein 4 (BMP4) commenced. Cells were treated with either 1 ng/mL, 10 ng/mL, 100 ng/mL, or 0 ng/mL BMP4 for 4 days (n=3). After 4 days cells were fixed with 2% paraformaldehyde and stained with Oct4-Alexa 647 antibody. Cells were loaded into a plate reader and measured at excitation emission pairs of 650/665 and 488/520 nm to measure Oct4-Alexa 647 antibody (top graph) and GFP (bottom graph) respectively. Pluripotency (measured by the loss of OCT4 and GFP expression) decreased with the increase in differentiation inducing compound BMP4. Similar results were obtained when other compounds were tested. […]
The versatility of transformed human pluripotent stem cells is illustrated by the multiple types of assays that it enables. […] Cells were loaded into a plate reader and measured at excitation emission pairs of 650/665 and 488/520 nm to measure Oct4-Alexa 647 antibody (FIG. 7 top graph) and GFP (FIG. 7 bottom graph) respectively. Pluripotency (measured by the loss of OCT4 and GFP expression) decreased with the increase in differentiation inducing compound BMP4. […]

For the compound `C[S+](C)[O-]` [DMSO], the Oct4-GFP expression entry in series [1] (DMSO 0%, 0.01%, 2% (v/v) for 4 consecutive days, imaged day 5) is “decreasing expression levels of GFP”.
`OC(c1cc(C(F)(F)F)nc2c(C(F)(F)F)cccc12)C1CCCCN1` (centres unmarked) [Mefloquine HCl]: in series [2], the “Induction of t-hPSC differentiation (GFP/Hoechst ratio below zero, the threshold defined by BMP4)” value was “potent inducers of t-hPSCs differentiation”. Besides, in series [3], the “Cell viability relative to control samples (0 μM)” value was “did not reduce cell viability”. Further, in series [4], the “Frequency of Oct4+ cells” value is listed as “decrease”.
For the compound `CSc1ccc2c(c1)N(CCC1CCCCN1C)c1ccccc1S2` (centres unmarked) [Thioridazine HCl], the “Induction of t-hPSC differentiation (GFP/Hoechst ratio below zero, the threshold defined by BMP4)” value in series [2] is on record as “potent inducers of t-hPSCs differentiation”. The “Cell viability relative to control samples (0 μM)” value in series [3] was “did not reduce cell viability”. Further, in series [4], the “Frequency of Oct4+ cells” value is “decrease”.
Take bone morphogenic protein 4 [BMP4]: the Oct4-GFP expression result in series [1] (BMP4 added at day 2 and 3, imaged day 4) was “significant loss of GFP expression”. In series [5], the “GFP fluorescence (Oct4-GFP reporter)” value is on record as “decreased GFP fluorescence” and the Oct-4 antibody staining result is given as “decreased Oct-4 antibody staining”. The “Pluripotency (measured by the loss of OCT4 and GFP expression)” value in series [6] is “decreased”.
